Measured values published in patent US9522890B2, “Compounds acting at multiple prostaglandin receptors giving a general anti-inflammatory response” (Allergan, Inc., priority 2011, dated 2016).

What was measured:
Format in all cases: cell-based
[1] = target: T1, human recombinant prostanoid EP3 receptor (Homo sapiens, UniProt P43115); test: FLIPR Ca2+ signaling PG antagonist assay, EP3 receptor stable cell line; conditions: HEK-293 EBNA cells with chimeric Gqi, standard agonist PGE2
T1 construct: expressed in transfected cells; co-transfected with chimeric Gqi-HA
T1 sequence (P43115 1-390): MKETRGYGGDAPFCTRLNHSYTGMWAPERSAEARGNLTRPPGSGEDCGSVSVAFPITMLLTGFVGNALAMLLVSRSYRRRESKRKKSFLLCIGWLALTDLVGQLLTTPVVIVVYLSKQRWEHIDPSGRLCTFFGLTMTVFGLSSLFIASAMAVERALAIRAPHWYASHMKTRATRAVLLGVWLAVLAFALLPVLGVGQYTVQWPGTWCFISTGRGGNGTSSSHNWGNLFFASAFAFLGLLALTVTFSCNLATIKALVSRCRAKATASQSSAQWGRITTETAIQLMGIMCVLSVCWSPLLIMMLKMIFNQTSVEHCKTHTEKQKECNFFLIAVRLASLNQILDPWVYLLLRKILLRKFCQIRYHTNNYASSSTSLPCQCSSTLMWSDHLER
Protocol: (§1) The above compounds were tested for PG antagonist activity as follows using human recombinant prostanoid receptor (DP1, EP1-4, FP, IP and TP) stable cell lines:
(§2) In order to measure the response of Gs and Gi coupled prostanoid receptors as a Ca^2+ signal, chimeric G protein cDNAs were used. Stable cell lines over-expressing human prostanoid DP1, EP1-4, FP, IP, and TP receptors were established as follows:
(§3) Briefly, human prostanoid DP1, EP2, and EP4 receptor cDNAs were co-transfected with chimeric Gqs cDNA containing a haemagglutanin (HA) epitope; human prostanoid EP3 receptors were co-transfected with chimeric Gqi-HA; human EP1, FP, IP, and TP receptor cDNAs were expressed with no exogenous G-proteins. Gqs and Gqi chimeric cDNAs (Molecular Devices, Sunnyvale, Calif., U.S.A.), as well as cDNAs of prostanoid receptors, were cloned into a pCEP4 vector with a hygromycin B selection marker. Transfection into HEK-293 EBNA (Epstein-Barr virus nuclear antigen) cells was achieved by the FuGENE 6 transfection Reagent (Roche Applied Science, Indianapolis, Ind., USA). Stable transfectants were selected according to hygromycin resistance. Because Gqs and Gqi contained an HA epitope, G-protein expression was detected by Western blotting analysis using anti-mouse HA monoclonal antibody and horseradish peroxidase (HRP)-conjugated secondary antibody, while functional expression of prostanoid receptors was detected by FLIPR screening (Matias et al., 2004). These stable cell lines were validated using previously published antagonists at 10 μM against serial dilutions of standard agonists by FLIPR functional assays for Ca^2+ Signaling (as described below).
(§4) Ca^2+ signaling studies were performed using a FLIPR TETRA system (Molecular Devices, Sunnyvale, Calif., USA) in the 384-format. This is a high-throughput instrument for cell-based assays to monitor Ca^2+ signaling associated with GPCRs and ion channels. Cells were seeded at a density of 5×10^4 cells/well in BioCoat poly-D-lysine coated, black wall, clear bottom 384-well plates (BD Biosciences, Franklin lakes, NJ, USA) and allowed to attach overnight in an incubator at 37° C. The cells were then washed twice with HBSS-HEPES buffer (Hanks' balanced salt solution without bicarbonate and phenol red, 20 mM HEPES, pH 7.4) using an ELx405 Select CW Microplate Washer (BioTek, Winooski, Vt., USA). After 60 min of dye-loading in the dark using the Ca^2+-sensitive dye Fluo-4AM (Invitrogen, Carlsbad, Calif., USA), at a final concentration of 2×10^−6M, the plates were washed 4 times with HBSS-HEPES buffer to remove excess dye and leaving 50 μl of buffer in each well. The plates were then placed in the FLIPR TETRA instrument and allowed to equilibrate at 37° C. Compounds were added in a 25 μl volume to each well to give final concentrations of 0.1 μM, 0.3 μM, 1 μM, 3 μM, 10 μM, and 30 μM; or 0.067 μM, 0.1 μM, 0.2 μM, 0.3 μM, 0.67 μM, and 1 μM for cells over-expressing TP receptors. After 4.5 minutes, a 7-point serial dilution of the standard agonist for the corresponding receptor, in a 25 μl volume was injected at the final concentrations from 10^−11M to 10^−5M in 10-fold serial dilution increments for cells expressing human recombinant DP1, EP1, EP2, EP3, EP4, FP, and IP receptors. The dose range for the standard agonist for human recombinant TP receptors was from 10^−12M to 10^−6M. HBSS-HEPES buffer was used as the negative control for the standard agonists. Cells were excited with LED (light emitting diode) excitation at 470-495 nm and emission was measured through an emission filter at 515-575 nm. Assay plates were read for 3.5 minutes using the FLIPR^TETRA. The peak increase in fluorescence intensity was recorded for each well. On each plate, negative controls, dose response of positive controls, and co-treatments of antagonist-agonist for each dose were in triplicates. Standard agonists were as follows: DP=BW 245C, EP1-EP4=PGE2, FP=17-phenyl-PGF2α, IP=Cicaprost, and TP=U-46619. […]

[2] = target: T2, human recombinant prostanoid EP1 receptor (Homo sapiens, UniProt P34995); test: FLIPR Ca2+ signaling PG antagonist assay, EP1 receptor stable cell line; conditions: HEK-293 EBNA cells, standard agonist PGE2
T2 construct: expressed in transfected cells
T2 sequence (P34995 1-402): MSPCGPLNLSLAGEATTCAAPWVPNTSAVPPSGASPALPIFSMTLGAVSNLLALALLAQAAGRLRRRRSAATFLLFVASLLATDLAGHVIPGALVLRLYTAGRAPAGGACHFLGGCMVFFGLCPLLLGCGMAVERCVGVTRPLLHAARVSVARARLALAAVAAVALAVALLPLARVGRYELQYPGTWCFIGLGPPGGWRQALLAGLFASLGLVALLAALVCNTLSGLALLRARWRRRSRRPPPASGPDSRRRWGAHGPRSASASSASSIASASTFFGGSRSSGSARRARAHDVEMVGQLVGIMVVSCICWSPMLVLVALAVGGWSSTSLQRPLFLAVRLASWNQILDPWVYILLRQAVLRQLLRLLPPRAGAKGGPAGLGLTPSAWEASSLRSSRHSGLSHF
Protocol: as §1, §2, §3, §4

[3] = target: T3, human recombinant prostanoid FP receptor (Homo sapiens, UniProt P43088); test: FLIPR Ca2+ signaling PG antagonist assay, FP receptor stable cell line; conditions: HEK-293 EBNA cells, standard agonist 17-phenyl-PGF2α
T3 construct: expressed in transfected cells
T3 sequence (P43088 whole entry): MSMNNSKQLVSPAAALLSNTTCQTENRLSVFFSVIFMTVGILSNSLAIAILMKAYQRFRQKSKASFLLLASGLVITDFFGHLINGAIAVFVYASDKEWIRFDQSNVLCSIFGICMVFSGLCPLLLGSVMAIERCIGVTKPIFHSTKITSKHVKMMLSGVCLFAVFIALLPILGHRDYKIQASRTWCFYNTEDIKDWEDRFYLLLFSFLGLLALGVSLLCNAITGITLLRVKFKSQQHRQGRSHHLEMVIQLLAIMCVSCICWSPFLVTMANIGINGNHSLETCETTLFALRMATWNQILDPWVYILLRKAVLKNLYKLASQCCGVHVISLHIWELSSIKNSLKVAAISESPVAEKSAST
Protocol: as §1, §2, §3, §4

[4] = target: T4, human recombinant prostanoid TP receptor (Homo sapiens, UniProt P21731); test: FLIPR Ca2+ signaling PG antagonist assay, TP receptor stable cell line; conditions: HEK-293 EBNA cells, standard agonist U-46619
T4 construct: expressed in transfected cells
T4 sequence (P21731 1-343): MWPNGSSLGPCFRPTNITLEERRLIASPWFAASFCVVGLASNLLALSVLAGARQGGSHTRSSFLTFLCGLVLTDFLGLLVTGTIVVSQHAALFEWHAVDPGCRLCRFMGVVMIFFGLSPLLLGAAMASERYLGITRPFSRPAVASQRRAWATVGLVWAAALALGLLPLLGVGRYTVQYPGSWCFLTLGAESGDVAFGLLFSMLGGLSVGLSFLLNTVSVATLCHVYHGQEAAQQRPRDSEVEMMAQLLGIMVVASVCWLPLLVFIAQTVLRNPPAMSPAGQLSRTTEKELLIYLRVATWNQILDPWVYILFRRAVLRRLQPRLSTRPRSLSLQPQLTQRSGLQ
Protocol: as §1, §2, §3, §4

[5] = target: T5, human recombinant prostanoid EP2 receptor (Homo sapiens, UniProt P43116); test: FLIPR Ca2+ signaling PG antagonist assay, EP2 receptor stable cell line; conditions: HEK-293 EBNA cells with chimeric Gqs, standard agonist PGE2
T5 construct: expressed in transfected cells; co-transfected with chimeric Gqs-HA
T5 sequence (P43116 whole entry): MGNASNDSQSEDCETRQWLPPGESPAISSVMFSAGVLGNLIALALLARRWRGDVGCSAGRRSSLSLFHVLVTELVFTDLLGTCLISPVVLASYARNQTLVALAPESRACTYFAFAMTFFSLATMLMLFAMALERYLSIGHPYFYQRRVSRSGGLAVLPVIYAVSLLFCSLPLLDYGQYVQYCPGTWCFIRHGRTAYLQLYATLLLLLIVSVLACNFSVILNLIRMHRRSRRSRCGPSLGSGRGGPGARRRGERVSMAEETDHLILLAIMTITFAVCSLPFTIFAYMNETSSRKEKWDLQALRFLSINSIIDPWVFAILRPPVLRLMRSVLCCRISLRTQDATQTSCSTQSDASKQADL
Protocol: as §1, §2, §3, §4

[6] = target: T6, human recombinant prostanoid IP receptor (Homo sapiens, UniProt P43119); test: FLIPR Ca2+ signaling PG antagonist assay, IP receptor stable cell line; conditions: HEK-293 EBNA cells, standard agonist Cicaprost
T6 construct: expressed in transfected cells
T6 sequence (P43119 whole entry): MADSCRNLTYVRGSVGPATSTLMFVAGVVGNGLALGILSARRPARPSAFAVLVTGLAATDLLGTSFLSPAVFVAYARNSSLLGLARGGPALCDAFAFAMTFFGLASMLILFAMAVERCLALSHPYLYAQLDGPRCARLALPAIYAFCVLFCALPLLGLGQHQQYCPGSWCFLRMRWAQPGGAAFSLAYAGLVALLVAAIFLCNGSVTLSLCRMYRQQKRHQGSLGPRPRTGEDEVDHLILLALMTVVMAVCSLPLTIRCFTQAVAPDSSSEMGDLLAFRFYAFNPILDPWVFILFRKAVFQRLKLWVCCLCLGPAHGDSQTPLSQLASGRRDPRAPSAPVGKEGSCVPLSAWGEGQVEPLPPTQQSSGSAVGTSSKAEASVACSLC
Protocol: as §1, §2, §3, §4

[7] = target: T7, human recombinant prostanoid EP4 receptor (Homo sapiens, UniProt P35408); test: FLIPR Ca2+ signaling PG antagonist assay, EP4 receptor stable cell line; conditions: HEK-293 EBNA cells with chimeric Gqs, standard agonist PGE2
T7 construct: expressed in transfected cells; co-transfected with chimeric Gqs-HA
T7 sequence (P35408 whole entry): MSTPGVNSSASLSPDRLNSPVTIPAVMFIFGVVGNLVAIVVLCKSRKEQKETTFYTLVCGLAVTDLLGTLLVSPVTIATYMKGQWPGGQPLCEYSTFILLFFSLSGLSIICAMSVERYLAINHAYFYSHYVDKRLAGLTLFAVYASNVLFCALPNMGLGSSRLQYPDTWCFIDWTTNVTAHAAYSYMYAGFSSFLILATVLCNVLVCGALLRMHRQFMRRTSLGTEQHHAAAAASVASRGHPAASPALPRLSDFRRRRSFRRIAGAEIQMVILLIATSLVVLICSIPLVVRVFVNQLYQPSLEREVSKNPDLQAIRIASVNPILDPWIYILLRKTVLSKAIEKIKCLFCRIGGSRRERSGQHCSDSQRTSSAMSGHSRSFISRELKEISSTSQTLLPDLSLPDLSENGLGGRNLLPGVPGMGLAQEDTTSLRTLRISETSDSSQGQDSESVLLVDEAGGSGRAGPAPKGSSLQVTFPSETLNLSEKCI
Protocol: as §1, §2, §3, §4

[8] = target: T8, human recombinant prostanoid DP1 receptor (Homo sapiens, UniProt Q13258); test: FLIPR Ca2+ signaling PG antagonist assay, DP1 receptor stable cell line; conditions: HEK-293 EBNA cells with chimeric Gqs, standard agonist BW 245C; read-out: DP (antagonist Kb)
T8 construct: expressed in transfected cells; co-transfected with chimeric Gqs-HA
T8 sequence (Q13258 1-359): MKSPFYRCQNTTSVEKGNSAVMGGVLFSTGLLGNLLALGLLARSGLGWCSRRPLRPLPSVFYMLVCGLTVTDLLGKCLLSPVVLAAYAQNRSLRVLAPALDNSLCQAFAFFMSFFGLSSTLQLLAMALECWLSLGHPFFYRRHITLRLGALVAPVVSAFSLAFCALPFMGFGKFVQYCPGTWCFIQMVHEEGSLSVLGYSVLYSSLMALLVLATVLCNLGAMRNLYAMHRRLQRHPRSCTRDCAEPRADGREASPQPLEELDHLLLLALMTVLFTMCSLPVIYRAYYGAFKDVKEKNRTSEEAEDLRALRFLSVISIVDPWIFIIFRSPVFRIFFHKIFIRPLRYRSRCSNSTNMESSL
Protocol: as §1, §2, §3, §4

SMILES	Kb [1] [nM]	Kb [2] [nM]	Kb [3] [nM]	Kb [4] [nM]	Kb [5] [nM]	Kb [6] [nM]	Kb [7] [nM]	Kb [8] [nM]
Cc1cc(C(=O)NS(=O)(=O)c2ccccc2)nn1Cc1cc(Cl)ccc1OCc1ccc(Cl)cc1 [Example 5, N-{1-[5-CHLORO-2-(4-CHLORO-BENZYLOXY)-BENZYL]-5-METHYL-1H-PYRAZOLE-3-CARBONYL}-BENZENESULFONAMIDE]	1500	10	1700	10	≥ 10000	2000	75	2600
CCC(C)(CC)COc1ccc(Br)cc1Cn1nc(C(=O)O)cc1C [Example 7, 1-[5-BROMO-2-(2-ETHYL-2-METHYL-BUTOXY)-BENZYL]-5-METHYL-1H-PYRAZOLE-3-CARBOXYLIC ACID]	≥ 10000	19	80	11	3600	1700	2070	150
CCC(CC)COc1ccc(Br)cc1Cn1nc(C(=O)O)cc1C [Example 6, 1-[5-BROMO-2-(2-ETHYL-BUTOXY)-BENZYL]-5-METHYL-1H-PYRAZOLE-3-CARBOXYLIC ACID]	≥ 10000	10	35	< 1	6200	500	800	150
Cc1cc(C(=O)O)nn1Cc1cc(Br)ccc1OCC1(C(F)(F)F)CCC1 [Example 9, 1-[5-BROMO-2-(1-TRIFLUOROMETHYL-CYCLOBUTYLMETHOXY)-BENZYL]-5-METHYL-1H-PYRAZOLE-3-CARBOXYLIC ACID]	2600	16	30	10	3300	≥ 10000	600	190
COc1ccc(COc2ccc(Cl)cc2Cn2nc(C(=O)NS(=O)(=O)c3ccccc3)cc2C)cc1 [Example 4, N-{1-[5-CHLORO-2-(4-METHOXY-BENZYLOXY)-BENZYL]-5-METHYL-1H-PYRAZOLE-3-CARBONYL}-BENZENESULFONAMIDE]	2500	10	400	2	4900	900	140	800

The remaining lines, values ahead:

Kb [1] [nM]	Kb [2] [nM]	Kb [3] [nM]	Kb [4] [nM]	Kb [5] [nM]	Kb [6] [nM]	Kb [7] [nM]	Kb [8] [nM]	SMILES
≥ 10000	10	20	< 1	≥ 10000	1300	400	400	Cc1cc(C(=O)O)nn1Cc1cc(Br)ccc1OCC1CCCC1 [Example 2, 1-(5-BROMO-2-CYCLOPENTYLMETHOXY-BENZYL)-5-METHYL-1H-PYRAZOLE-3-CARBOXYLIC ACID]
≥ 10000	5	80	1	8900	4000	700	700	Cc1cc(C(=O)O)nn1Cc1cc(C(F)(F)F)ccc1OCC1CCCC1 [Example 3, 1-(2-CYCLOPENTYLMETHOXY-5-TRIFLUOROMETHYL-BENZYL)-5-METHYL-1H-PYRAZOLE-3-CARBOXYLIC ACID]
4100	10	8	8	≥ 10000	5600	700	130	Cc1cc(C(=O)O)nn1Cc1cc(Br)ccc1OCC1CCC1 [Example 8, 1-(5-BROMO-2-CYCLOBUTYLMETHOXY-BENZYL)-5-METHYL-1H-PYRAZOLE-3-CARBOXYLIC ACID]
≥ 10000	30	150	< 1	≥ 10000	≥ 10000	800	800	Cc1cc(C(=O)O)nn1Cc1cc(Cl)ccc1OCC1CCCC1 [Example 1, 1-(5-CHLORO-2-CYCLOPENTYLMETHOXY-BENZYL)-5-METHYL-1H-PYRAZOLE-3-CARBOXYLIC ACID]
